One data set deals with primary rat OPCs. As to the kind of experiment: OPC-X-screen: OPC differentiation to MBP+ OLs or GFAP+ astrocytes in presence of fibrinogen. The format is cell-based. The conditions noted are these: for cell-fate switch of OPCs to GFAP+ cells by fibrinogen: fibrinogen-treated OPCs, clemastine 1 μM; for cell-fate switch of OPCs to GFAP+ cells by fibrinogen / OPC differentiation to mature MBP+ OLs under extrinsic inhibition by fibrinogen: DMH1 1 μM; for OPC differentiation to mature MBP+ OLs under extrinsic inhibition by fibrinogen: myelin-promoting compound screen, fibrinogen 1.5 mg/ml, benztropine, clemastine, quetiapine, miconazole, (±)U-50488 1 μM, clobetasol 5 μM, XAV-939 0.1 μM.

Data set [1] deals with BMP signaling (P-SMAD1/5, ID2) in primary rat OPCs. The experiment in a line: Immunoblot of phospho-SMAD1/5 and ID2 in fibrinogen-treated OPCs. The data set is classed as cell-based. Here is the method:
Cells or tissue were lysed in RIPA lysis buffer (Thermo Fisher Scientific) supplemented with protease/phosphatase inhibitor cocktails (Calbiochem) and lysates were cleared by centrifuging at 13,000×g for 15 minutes at 4° C. Equal amounts of protein were loaded in […] bis-tris gels (Thermo Fisher Scientific) and analyzed by western blotting. Bands were visualized with HRP-conjugated secondary antibodies (Cell Signaling Technology). Densitometry was performed using ImageJ Software (NIH) with values for each band normalized to GAPDH loading controls from the same membrane. Primary antibodies were: Id2 (1:1000, rabbit monoclonal, #M213, CalBioreagents); phospho-Smad1/5 (1:1000, rabbit monoclonal, #9516, Cell Signaling Technology); GAPDH (1:1000, rabbit monoclonal, #2118, Cell Signaling Technology)
A general note: Immunoblotting shows a protein as a band on a membrane.

A further data set in a line: Water solubility. The data set is classed as physicochemical.
The next data set has as its system NOD-MOG35-55 EAE mice. The experiment in a line: Progressive NOD-MOG35-55 EAE, therapeutic treatment. The format is in vivo, mouse.
Another data set concerns PLP-EAE. As to the kind of experiment: In vivo PLP-EAE.
Data set [2] relates to NG2-CreER™:Rosa^tdTomato/+ MOG35-55-EAE mice. Particulars: vs saline.
Where [3] appears, read: fibrinogen alone vs control, OPC-X assay.
Where [4] appears, read: LDN-212854 dose response 5 μM to 2 nM, fibrinogen 2.5 mg/ml, 3 days.
The mark [5] stands for this setting: in vivo 2P imaging at chronic EAE.

“Also recorded” adds a separate entry of the source. Where two headings read alike, the source gives them in different places.

`CC(C)Oc1ccc(-c2cnc3c(-c4ccnc5ccccc45)cnn3c2)cc1` [DMH1]: in the data set with primary rat OPCs (3 days), the “cell-fate switch of OPCs to GFAP+ cells by fibrinogen” value is “abolished” and the “OPC differentiation to mature MBP+ OLs under extrinsic inhibition by fibrinogen” value is listed as “restored OPC differentiation to mature OLs to control levels”. In data set [1], the “fibrinogen-induced expression of BMP target protein ID2” value is “blocked” and the “fibrinogen-induced phosphorylation of SMAD1/5” value is “blocked”. Moreover, the water solubility entry in the data set “Water solubility” is on record as “not water-soluble”.
`CN1[C@@H]2CC[C@H]1C[C@@H](OC(c1ccccc1)c1ccccc1)C2` [benztropine]: in the data set on primary rat OPCs (3 days), the “OPC differentiation to mature MBP+ OLs under extrinsic inhibition by fibrinogen” value is on record as “did not overcome extrinsic inhibition of OPC differentiation by fibrinogen”.
As to fibrinogen, in the data set with primary rat OPCs (setting [3]), the “decrease of MBP+ mature OLs as compared to controls” value is around 60% and the “increase of GFAP+ astrocyte-like cells as compared to controls” value is around 60%.
For `C[C@H]1C[C@H]2[C@@H]3CCC4=CC(=O)C=C[C@]4(C)[C@@]3(F)[C@@H](O)C[C@]2(C)[C@@]1(O)C(=O)CCl` [clobetasol], in the data set on primary rat OPCs (3 days), the “OPC differentiation to mature MBP+ OLs under extrinsic inhibition by fibrinogen” value is “did not overcome extrinsic inhibition of OPC differentiation by fibrinogen”.
Consider `c1cc(-c2cnn3cc(-c4ccc(N5CCNCC5)cc4)cnc23)c2cccnc2c1` [LDN-212854], for which, in the data set with primary rat OPCs (setting [4]), the “formation of GFAP+ astrocytes from fibrinogen-treated OPCs” value is “blocked the formation of GFAP+ astrocytes” and the “mature OL (MBP+) differentiation from fibrinogen-treated OPCs” value is recorded as “enhanced formation of mature oligodendrocytes; also recorded: restored mature OL differentiation”. Further, in the data set with NOD-MOG35-55 EAE mice (30 days treatment, vs saline), the “demyelination in spinal cord” value is reported as “reduced” and the “fibrinogen deposition in spinal cord” value was “reduced”. Moreover, in the data set with NOD-MOG35-55 EAE mice (treated for 30 days, vs saline), the clinical scores result was “significantly improved”. In the data set on NOD-MOG35-55 EAE mice (treated for 30 days, maximum scores from the last 20 days of treatment, five-point scale), the “group mean of maximum clinical scores” value is 1.75. Moreover, the water solubility entry in “Water solubility” is reported as “water soluble; also recorded: water-soluble”. Also, in the data set on PLP-EAE, the clinical scores entry is reported as “improved” and the “spinal cord Id2 protein levels” value is on record as “reduced”. Further, in data set [2] (6 mg/kg twice daily for 14 days starting at peak disease), the clinical scores result was “significantly improved”. Also, the “ID2 expression in NG2 cells in the EAE white matter” value in data set [2] (14 day treatment) is on record as “decreased”. Moreover, in data set [2] (14 days treatment), the “demyelination in spinal cord” value is recorded as “reduced” and the “fibrinogen deposition in spinal cord” value was “reduced”. For the same molecule, in data set [2] (setting [5]), the “myelin damage (myelin circularity)” value is on record as “markedly reduced” and the “perivascular NG2 clusters” value is listed as “markedly reduced”.
Regarding `Oc1nc(-c2ccc(C(F)(F)F)cc2)nc2c1CSCC2` [XAV-939], the “OPC differentiation to mature MBP+ OLs under extrinsic inhibition by fibrinogen” value in the data set with primary rat OPCs (3 days) is given as “did not overcome extrinsic inhibition of OPC differentiation by fibrinogen”.
`CN1CCC[C@@H]1CCO[C@](C)(c1ccccc1)c1ccc(Cl)cc1` [clemastine]: the “OPC differentiation to mature OLs in the presence of fibrinogen” value in the data set with primary rat OPCs (clemastine dose-response, fibrinogen 2.5 mg/ml, differentiation media without T3 or growth factors, 3 days) is on record as “did not enhance”. For the same molecule, in the data set on primary rat OPCs (3 days), the “cell-fate switch of OPCs to GFAP+ cells by fibrinogen” value is “did not inhibit SMAD1/5 phosphorylation, a key pathway downstream of BMP receptor activation, or rescue”. The “number of MBP+ cells in control conditions” value in the data set with primary rat OPCs (no fibrinogen, differentiation media without T3 or growth factors, 3 days) was “increased”. Further, in data set [1], the “fibrinogen-induced expression of BMP target protein ID2” value is reported as “did not block” and the “fibrinogen-induced phosphorylation of SMAD1/5” value is “did not inhibit”. In data set [1] (listed as Clemastine), the “fibrinogen-induced phosphorylation of SMAD1/5” value was “did not block”.
As for `Clc1ccc(COC(Cn2ccnc2)c2ccc(Cl)cc2Cl)c(Cl)c1` (stereo not drawn) [miconazole], in the data set on primary rat OPCs (3 days), the “OPC differentiation to mature MBP+ OLs under extrinsic inhibition by fibrinogen” value is reported as “did not overcome extrinsic inhibition of OPC differentiation by fibrinogen”.
For `OCCOCCN1CCN(C2=Nc3ccccc3Sc3ccccc32)CC1` [quetiapine], in the data set on primary rat OPCs (3 days), the “OPC differentiation to mature MBP+ OLs under extrinsic inhibition by fibrinogen” value is listed as “did not overcome extrinsic inhibition of OPC differentiation by fibrinogen”.

The record behind these values is patent US20230235036A1, “ACVR1 (ALK2) RECEPTOR INHIBITION TO TREAT NEUROLOGICAL DISEASES” (The J. David Gladstone Institutes, a testamentary trust …, priority 2020, published 2023).
